Measurements published in patent publication US20260151383A1, “HETEROCYCLIC COMPOUNDS AND USES THEREOF” (KayoThera Inc., priority 2022, published 2026).
pIC50: −log10 of the molar value.

Legend:
Format in all cases: biochemical
Conditions in all cases: recombinant enzyme, 20° C., activity level classes
hALDH1a3 = biological target: T1, hALDH1a3 (Homo sapiens, UniProt P47895); assay: Aldh1a3 enzyme inhibition assay (resorufin fluorescence), human enzyme
T1 construct: made in house; host or cells: E. coli BL21-DE3
T1 sequence (P47895 1-512): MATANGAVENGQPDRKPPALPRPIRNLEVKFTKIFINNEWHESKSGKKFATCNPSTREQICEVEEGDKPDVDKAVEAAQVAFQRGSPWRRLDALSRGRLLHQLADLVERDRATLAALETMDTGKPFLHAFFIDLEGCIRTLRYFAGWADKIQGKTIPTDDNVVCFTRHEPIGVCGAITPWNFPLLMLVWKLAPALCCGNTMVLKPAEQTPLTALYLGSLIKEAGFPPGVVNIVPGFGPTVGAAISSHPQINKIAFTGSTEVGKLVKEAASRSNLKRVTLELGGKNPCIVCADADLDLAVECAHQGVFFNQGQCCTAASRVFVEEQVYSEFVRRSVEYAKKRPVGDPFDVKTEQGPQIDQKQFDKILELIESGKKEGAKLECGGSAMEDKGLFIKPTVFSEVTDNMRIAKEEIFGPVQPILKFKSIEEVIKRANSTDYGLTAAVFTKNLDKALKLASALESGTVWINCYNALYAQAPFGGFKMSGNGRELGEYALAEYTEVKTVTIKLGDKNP

mALDH1a3 = biological target: T2, mALDH1a3 (Mus musculus, UniProt Q9JHW9); assay: Aldh1a3 enzyme inhibition assay (resorufin fluorescence), mouse enzyme
T2 construct: made in house; host or cells: E. coli BL21-DE3
T2 sequence (Q9JHW9 1-512): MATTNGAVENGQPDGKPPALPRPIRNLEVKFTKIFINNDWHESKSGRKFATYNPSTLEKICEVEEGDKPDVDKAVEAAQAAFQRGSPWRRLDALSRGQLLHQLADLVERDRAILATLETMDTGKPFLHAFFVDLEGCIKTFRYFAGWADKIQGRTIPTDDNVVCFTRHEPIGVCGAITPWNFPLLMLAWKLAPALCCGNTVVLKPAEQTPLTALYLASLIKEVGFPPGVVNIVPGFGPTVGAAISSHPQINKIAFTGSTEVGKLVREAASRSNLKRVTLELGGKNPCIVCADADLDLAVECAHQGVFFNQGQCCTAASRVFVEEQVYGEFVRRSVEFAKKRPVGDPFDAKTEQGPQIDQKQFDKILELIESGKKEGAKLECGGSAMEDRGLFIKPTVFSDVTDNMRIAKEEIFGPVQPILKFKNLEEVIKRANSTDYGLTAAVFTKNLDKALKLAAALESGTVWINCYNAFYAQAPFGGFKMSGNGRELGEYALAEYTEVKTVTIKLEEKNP
Description: Recombinant enzyme and inhibitor added immediately before assay. Reaction rate measured by resorufin fluorescence.

hALDH1a2 = biological target: T3, hALDH1a2 (Homo sapiens, UniProt O94788); assay: Aldh1a2 enzyme inhibition assay (resorufin fluorescence), human enzyme
T3 construct: made in house; host or cells: E. coli BL21-DE3
T3 sequence (O94788 1-518): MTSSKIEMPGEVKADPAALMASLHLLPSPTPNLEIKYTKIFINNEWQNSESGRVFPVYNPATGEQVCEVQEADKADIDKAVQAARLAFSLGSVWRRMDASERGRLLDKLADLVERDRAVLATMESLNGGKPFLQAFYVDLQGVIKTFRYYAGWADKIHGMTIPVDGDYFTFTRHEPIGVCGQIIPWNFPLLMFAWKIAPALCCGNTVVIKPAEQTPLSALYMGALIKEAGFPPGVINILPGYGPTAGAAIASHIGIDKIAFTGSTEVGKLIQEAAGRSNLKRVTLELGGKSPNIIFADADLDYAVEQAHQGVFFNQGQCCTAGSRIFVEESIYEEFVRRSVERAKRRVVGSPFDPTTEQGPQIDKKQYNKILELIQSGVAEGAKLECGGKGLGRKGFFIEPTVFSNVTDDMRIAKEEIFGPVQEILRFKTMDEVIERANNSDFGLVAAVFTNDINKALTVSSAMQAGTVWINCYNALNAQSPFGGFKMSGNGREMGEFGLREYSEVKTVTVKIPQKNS
Description: (§1) Recombinant enzyme and inhibitor added immediately before assay. Reaction rate measured by resorufln fluorescence.

mALDH1a2 = biological target: T4, mALDH1a2 (Mus musculus, UniProt Q62148); assay: Aldh1a2 enzyme inhibition assay (resorufin fluorescence), mouse enzyme
T4 construct: made in house; host or cells: E. coli BL21-DE3
T4 sequence (Q62148 1-518): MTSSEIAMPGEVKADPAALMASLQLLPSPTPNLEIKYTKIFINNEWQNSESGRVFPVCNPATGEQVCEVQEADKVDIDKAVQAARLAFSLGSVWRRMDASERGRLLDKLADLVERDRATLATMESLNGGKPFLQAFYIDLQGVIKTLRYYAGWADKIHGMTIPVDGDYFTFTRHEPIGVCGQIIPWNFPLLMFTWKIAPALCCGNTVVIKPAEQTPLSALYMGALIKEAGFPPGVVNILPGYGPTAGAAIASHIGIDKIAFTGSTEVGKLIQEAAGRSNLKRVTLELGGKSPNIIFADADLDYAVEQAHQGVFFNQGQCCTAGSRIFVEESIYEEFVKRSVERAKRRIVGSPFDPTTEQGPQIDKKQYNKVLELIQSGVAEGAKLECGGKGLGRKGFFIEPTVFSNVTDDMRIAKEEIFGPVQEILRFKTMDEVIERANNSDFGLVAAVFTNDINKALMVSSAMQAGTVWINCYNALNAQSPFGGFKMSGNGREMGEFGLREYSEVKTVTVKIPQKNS
Description: as §1

| SMILES | pIC50 (hALDH1a3) | pIC50 (mALDH1a3) | pIC50 (hALDH1a2) | pIC50 (mALDH1a2) | mAldh1a3 IC50 (mALDH1a3) |
| --- | --- | --- | --- | --- | --- |
| O=C1CCc2cc(NC(=O)c3ccncc3-c3ccccc3)cc(Cl)c2N1 [Compound 20] | 5.30 to 6.00 | 5.30 to 6.00 | > 7.00 | 6.60 to 7.00 | – |
| O=C1CCc2cc(NC(=O)c3ccncc3-c3ccccc3)ccc2N1 [Compound 21] | < 5.30 | – | 5.30 to 6.00 | 5.30 to 6.00 | No activity |
| O=C1CCc2cc(NC(=O)c3ccccc3-c3cccc(F)c3)ccc2N1 [Compound 22] | < 5.30 | – | < 5.30 | < 5.30 | No activity |
| Cc1cc(NC(=O)c2ccccc2-c2cccc(F)c2)cc2c1NC(=O)CC2 [Compound 23] | < 5.30 | < 5.30 | 5.30 to 6.00 | 5.30 to 6.00 | – |
| O=C1CCc2cc(NC(=O)c3ccccc3-c3cccc(F)c3)cc(Cl)c2N1 [Compound 24] | 5.30 to 6.00 | < 5.30 | 6.60 to 7.00 | 6.00 to 6.60 | – |
| O=C1CCc2cc(NC(=O)c3ccncc3-c3ccccc3F)ccc2N1 [Compound 25] | < 5.30 | – | 5.30 to 6.00 | 5.30 to 6.00 | No activity |
| O=C1CCc2cc(NC(=O)c3ccncc3-c3ccccc3F)cc(Cl)c2N1 [Compound 26] | 5.30 to 6.00 | – | 6.60 to 7.00 | 6.60 to 7.00 | No activity |
| Cc1cc(NC(=O)c2ccncc2CC2(C)CC2)cc2c1NC(=O)CC2 [Compound 27] | > 7.00 | 6.00 to 6.60 | 6.60 to 7.00 | 6.60 to 7.00 | – |
| Cc1cc(NC(=O)c2ccncc2CC(F)(F)F)cc2c1NC(=O)CS2(=O)=O [Compound 28] | < 5.30 | 5.30 to 6.00 | < 5.30 | < 5.30 | – |
| Cc1cc(NC(=O)c2scnc2CC(F)(F)F)cc2c1NC(=O)CC2 [Compound 31] | 6.60 to 7.00 | > 7.00 | 6.00 to 6.60 | 6.00 to 6.60 | – |
| CCc1ncsc1C(=O)Nc1cc(C)c2c(c1)CCC(=O)N2 [Compound 32] | 6.60 to 7.00 | > 7.00 | 6.00 to 6.60 | 6.00 to 6.60 | – |
| Cc1cc(NC(=O)c2scnc2CC(F)(F)F)cc2c1NC(=O)C1CC21 (stereo not shown) [Compound 33] | 6.60 to 7.00 | > 7.00 | > 7.00 | > 7.00 | – |
| CCc1ncsc1C(=O)Nc1cc(C)c2c(c1)C1CC1C(=O)N2 (stereo not shown) [Compound 34] | > 7.00 | > 7.00 | > 7.00 | > 7.00 | – |
| O=C1CCc2cc(NC(=O)c3scnc3CC(F)(F)F)cc(Cl)c2N1 [Compound 35] | 6.60 to 7.00 | > 7.00 | 6.00 to 6.60 | 6.00 to 6.60 | – |
| CCc1ncsc1C(=O)Nc1cc(Cl)c2c(c1)CCC(=O)N2 [Compound 36] | 6.60 to 7.00 | > 7.00 | 6.00 to 6.60 | 6.00 to 6.60 | – |
| O=C(Nc1cc(Cl)c2c(c1)C1CC1C(=O)N2)c1scnc1CC(F)(F)F (stereo not shown) [Compound 37] | 6.60 to 7.00 | > 7.00 | 6.60 to 7.00 | 6.60 to 7.00 | – |
| CCc1ncsc1C(=O)Nc1cc(Cl)c2c(c1)C1CC1C(=O)N2 (stereo not shown) [Compound 38] | 6.60 to 7.00 | > 7.00 | 6.60 to 7.00 | 6.60 to 7.00 | – |
| CCc1scnc1C(=O)Nc1cc(C)c2c(c1)C1CC1C(=O)N2 (stereo not shown) [Compound 39] | 6.00 to 6.60 | 6.00 to 6.60 | 6.00 to 6.60 | 6.00 to 6.60 | – |
| Cc1cc(NC(=O)c2ncsc2CC(F)(F)F)cc2c1NC(=O)C1CC21 (stereo not shown) [Compound 40] | > 7.00 | > 7.00 | > 7.00 | > 7.00 | – |
| CCc1cnsc1C(=O)Nc1cc(C)c2c(c1)C1CC1C(=O)N2 (stereo not shown) [Compound 41] | > 7.00 | > 7.00 | > 7.00 | > 7.00 | – |
| O=C(Nc1cc(Cl)c2c(c1)C1CC1C(=O)N2)c1scnc1CC(F)(F)F (stereo not shown) [Compound 42] | 6.60 to 7.00 | > 7.00 | 6.00 to 6.60 | 5.30 to 6.00 | – |
| CCc1ncsc1C(=O)Nc1cc(Cl)c2c(c1)C1CC1C(=O)N2 (stereo not shown) [Compound 43] | 6.60 to 7.00 | > 7.00 | 5.30 to 6.00 | 5.30 to 6.00 | – |
| CCc1scnc1C(=O)Nc1cc(Cl)c2c(c1)CCC(=O)N2 [Compound 44] | 5.30 to 6.00 | 6.60 to 7.00 | 5.30 to 6.00 | 5.30 to 6.00 | – |
| CCc1scnc1C(=O)Nc1cc2c(c(C3CC3)c1)NC(=O)CC2 [Compound 45] | 5.30 to 6.00 | 6.60 to 7.00 | 6.00 to 6.60 | 6.00 to 6.60 | – |
| CCc1csnc1C(=O)Nc1cc(C)c2c(c1)C1CC1C(=O)N2 (stereo not shown) [Compound 46] | 6.60 to 7.00 | > 7.00 | 6.60 to 7.00 | 6.60 to 7.00 | – |
| CCc1cnsc1C(=O)Nc1cc(C)c2c(c1)CCC(=O)N2 [Compound 48] | 6.60 to 7.00 | > 7.00 | 6.60 to 7.00 | 6.60 to 7.00 | – |
| Cc1cc(NC(=O)c2cnsc2CC(F)(F)F)cc2c1NC(=O)CC2 [Compound 49] | > 7.00 | > 7.00 | > 7.00 | 6.60 to 7.00 | – |
| CCc1sncc1C(=O)Nc1cc(C)c2c(c1)CCC(=O)N2 [Compound 50] | 6.00 to 6.60 | > 7.00 | 6.00 to 6.60 | 6.00 to 6.60 | – |
